Numbers after ± are expanded uncertainties.
How the values were obtained:
[1] = 101 kPa, Liquid, Capillary tube (Ostwald / Ubbelohde) method
[2] = xn = mol fraction of the nth substance listed; details: 101 kPa, Liquid, Capillary tube (Ostwald / Ubbelohde) method

Cc1ccccc1C [1,2-dimethylbenzene]
[1]
Details | viscosity [mPa·s]
303.15 K | 0.71 ± 0.018
308.15 K | 0.666 ± 0.017
313.15 K | 0.628 ± 0.017
318.15 K | 0.591 ± 0.017
323.15 K | 0.56 ± 0.017

Cc1ccccc1C [1,2-dimethylbenzene] + CO
viscosity [mPa·s], [2]
Details | x2 = 0 | x2 = 0.1007 | x2 = 0.2013 | x2 = 0.2961 | x2 = 0.403 | x2 = 0.5003 | x2 = 0.601 | x2 = 0.7025 | x2 = 0.8006 | x2 = 0.9013
303.15 K | 0.71 ± 0.018 | 0.684 ± 0.017 | 0.674 ± 0.017 | 0.671 ± 0.017 | 0.666 ± 0.017 | 0.663 ± 0.017 | 0.655 ± 0.017 | 0.638 ± 0.017 | 0.61 ± 0.017 | 0.567 ± 0.017
308.15 K | 0.666 ± 0.017 | 0.641 ± 0.017 | 0.631 ± 0.017 | 0.626 ± 0.017 | 0.621 ± 0.017 | 0.617 ± 0.017 | 0.607 ± 0.017 | 0.595 ± 0.017 | 0.567 ± 0.017 | 0.53 ± 0.017
313.15 K | 0.628 ± 0.017 | 0.603 ± 0.017 | 0.591 ± 0.017 | 0.587 ± 0.017 | 0.582 ± 0.017 | 0.577 ± 0.017 | 0.569 ± 0.017 | 0.554 ± 0.017 | 0.531 ± 0.017 | 0.495 ± 0.017
318.15 K | 0.591 ± 0.017 | 0.566 ± 0.017 | 0.555 ± 0.017 | 0.55 ± 0.017 | 0.543 ± 0.017 | 0.538 ± 0.017 | 0.531 ± 0.017 | 0.516 ± 0.017 | 0.494 ± 0.017 | 0.462 ± 0.017
323.15 K | 0.56 ± 0.017 | 0.535 ± 0.017 | 0.523 ± 0.017 | 0.517 ± 0.017 | 0.511 ± 0.017 | 0.506 ± 0.017 | 0.496 ± 0.017 | 0.484 ± 0.017 | 0.462 ± 0.017 | 0.434 ± 0.017

Cc1cccc(C)c1 [1,3-dimethylbenzene]
[1]
Details | viscosity [mPa·s]
303.15 K | 0.554 ± 0.017
308.15 K | 0.524 ± 0.017
313.15 K | 0.498 ± 0.017
318.15 K | 0.472 ± 0.017
323.15 K | 0.452 ± 0.017

Cc1cccc(C)c1 [1,3-dimethylbenzene] + CO
viscosity [mPa·s], [2]
Details | x2 = 0 | x2 = 0.1008 | x2 = 0.2003 | x2 = 0.2999 | x2 = 0.4 | x2 = 0.4997 | x2 = 0.6003 | x2 = 0.7001 | x2 = 0.8001 | x2 = 0.9012
303.15 K | 0.554 ± 0.017 | 0.539 ± 0.017 | 0.542 ± 0.017 | 0.548 ± 0.017 | 0.553 ± 0.017 | 0.56 ± 0.017 | 0.566 ± 0.017 | 0.57 ± 0.017 | 0.565 ± 0.017 | 0.546 ± 0.017
308.15 K | 0.524 ± 0.017 | 0.51 ± 0.017 | 0.51 ± 0.017 | 0.514 ± 0.017 | 0.519 ± 0.017 | 0.526 ± 0.017 | 0.53 ± 0.017 | 0.532 ± 0.017 | 0.526 ± 0.017 | 0.509 ± 0.017
313.15 K | 0.498 ± 0.017 | 0.483 ± 0.017 | 0.483 ± 0.017 | 0.485 ± 0.017 | 0.488 ± 0.017 | 0.493 ± 0.017 | 0.496 ± 0.017 | 0.497 ± 0.017 | 0.492 ± 0.017 | 0.477 ± 0.017
318.15 K | 0.472 ± 0.017 | 0.456 ± 0.017 | 0.456 ± 0.017 | 0.457 ± 0.017 | 0.46 ± 0.017 | 0.462 ± 0.017 | 0.465 ± 0.017 | 0.466 ± 0.017 | 0.46 ± 0.017 | 0.445 ± 0.017
323.15 K | 0.452 ± 0.017 | 0.435 ± 0.017 | 0.433 ± 0.017 | 0.433 ± 0.017 | 0.434 ± 0.017 | 0.437 ± 0.017 | 0.437 ± 0.017 | 0.437 ± 0.017 | 0.432 ± 0.017 | 0.419 ± 0.017

Cc1ccc(C)cc1 [1,4-dimethylbenzene]
[1]
Details | viscosity [mPa·s]
303.15 K | 0.574 ± 0.017
308.15 K | 0.542 ± 0.017
313.15 K | 0.514 ± 0.017
318.15 K | 0.486 ± 0.017
323.15 K | 0.461 ± 0.017

Cc1ccc(C)cc1 [1,4-dimethylbenzene] + CO
viscosity [mPa·s], [2]
Details | x2 = 0 | x2 = 0.1001 | x2 = 0.1998 | x2 = 0.3015 | x2 = 0.4005 | x2 = 0.5 | x2 = 0.5999 | x2 = 0.7005 | x2 = 0.8 | x2 = 0.8984
303.15 K | 0.574 ± 0.017 | 0.559 ± 0.017 | 0.556 ± 0.017 | 0.563 ± 0.017 | 0.567 ± 0.017 | 0.573 ± 0.017 | 0.576 ± 0.017 | 0.577 ± 0.017 | 0.568 ± 0.017 | 0.549 ± 0.017
308.15 K | 0.542 ± 0.017 | 0.527 ± 0.017 | 0.524 ± 0.017 | 0.527 ± 0.017 | 0.529 ± 0.017 | 0.533 ± 0.017 | 0.536 ± 0.017 | 0.536 ± 0.017 | 0.529 ± 0.017 | 0.512 ± 0.017
313.15 K | 0.514 ± 0.017 | 0.498 ± 0.017 | 0.494 ± 0.017 | 0.496 ± 0.017 | 0.498 ± 0.017 | 0.501 ± 0.017 | 0.504 ± 0.017 | 0.502 ± 0.017 | 0.495 ± 0.017 | 0.479 ± 0.017
318.15 K | 0.486 ± 0.017 | 0.469 ± 0.017 | 0.465 ± 0.017 | 0.466 ± 0.017 | 0.467 ± 0.017 | 0.469 ± 0.017 | 0.469 ± 0.017 | 0.469 ± 0.017 | 0.462 ± 0.017 | 0.447 ± 0.017
323.15 K | 0.461 ± 0.017 | 0.445 ± 0.017 | 0.439 ± 0.017 | 0.44 ± 0.017 | 0.44 ± 0.017 | 0.443 ± 0.017 | 0.443 ± 0.017 | 0.441 ± 0.017 | 0.434 ± 0.017 | 0.42 ± 0.017

CO [methanol]
[1]
Details | viscosity [mPa·s]
303.15 K | 0.513 ± 0.017
308.15 K | 0.48 ± 0.017
313.15 K | 0.45 ± 0.017
318.15 K | 0.422 ± 0.017
323.15 K | 0.397 ± 0.017

CO [methanol] + Cc1ccc(C)cc1
[2], x1 = 1
Details | viscosity [mPa·s]
303.15 K | 0.513 ± 0.017
308.15 K | 0.48 ± 0.017
313.15 K | 0.45 ± 0.017
318.15 K | 0.422 ± 0.017
323.15 K | 0.397 ± 0.017

CO [methanol] + Cc1cccc(C)c1
[2], x1 = 1
Details | viscosity [mPa·s]
303.15 K | 0.513 ± 0.017
308.15 K | 0.48 ± 0.017
313.15 K | 0.45 ± 0.017
318.15 K | 0.422 ± 0.017
323.15 K | 0.397 ± 0.017

CO [methanol] + Cc1ccccc1C
[2], x1 = 1
Details | viscosity [mPa·s]
303.15 K | 0.513 ± 0.017
308.15 K | 0.48 ± 0.017
313.15 K | 0.45 ± 0.017
318.15 K | 0.422 ± 0.017
323.15 K | 0.397 ± 0.017

Reference: the NIST ThermoML archive (doi:10.1021/acs.jced.7b00971)
